Values quoted from earlier work, collected in publication PMC5548701, “Selective targeting of melanoma using N-(2-diethylaminoethyl) 4-[^18F]fluoroethoxy benzamide (4-[^18F]FEBZA): a novel PET imaging probe” (EJNMMI Research, 2017).

How the values were obtained:
B16F1 tumor = conditions: cited from earlier work; for intestinal uptake: mice bearing B16F melanoma tumor; for bone uptake: 2 h
[1] = parameters: method as in PMID 27693672; conditions: 60–70 min; cited from earlier work

## CCN(CC)CCNC(=O)c1ccc([18F])cc1 [^18F-DAFBA, N-(2-diethylaminoethyl)-4-[18F]fluorobenzamide]
B16F1 tumor; 1 h
  intestinal uptake: 3.04 ± 0.24 %IA/g
B16F1 tumor
  bone uptake: 0.20 ± 0.06 %IA/g

## CCN(CC)CCNC(=O)c1ccc(F)nc1 [MEL050]
[1]
  uptake in mouse brain from microPET imaging: 1.38 ± 0.40 %IA/g
B16F1 tumor; 1 h
  intestinal uptake: 2.1 ± 0.3 %IA/g
  F-18 uptake in B16F1 tumor: 8.4 ± 1.5 %IA/g
B16F1 tumor
  bone uptake: 0.58 ± 0.05 %IA/g
